The compounds below were run against T1, Recombinant (1-346) HPK1 (h) (Homo sapiens, UniProt Q92918) (assay: HPK1 Human STE Kinase Enzymatic Radiometric Assay). Conditions: read-out: HPK1 IC50 nM Range*.
T1 construct: Recombinant (1-346) HPK1 (h) is incubated with 8 mM MOPS pH 7.0
T1 sequence (Q92918 1-346): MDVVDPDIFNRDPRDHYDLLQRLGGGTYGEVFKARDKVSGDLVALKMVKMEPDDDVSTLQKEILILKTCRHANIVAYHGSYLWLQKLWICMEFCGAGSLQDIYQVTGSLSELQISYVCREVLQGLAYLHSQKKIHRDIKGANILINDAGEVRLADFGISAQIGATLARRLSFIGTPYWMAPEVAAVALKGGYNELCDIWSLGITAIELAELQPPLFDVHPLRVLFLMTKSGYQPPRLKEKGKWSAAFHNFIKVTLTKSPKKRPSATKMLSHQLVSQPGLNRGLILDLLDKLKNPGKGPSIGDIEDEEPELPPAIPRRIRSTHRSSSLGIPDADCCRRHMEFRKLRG
Type: biochemical
Procedure: A stock solution of 10 mM of test compound is prepared in DMSO. The compound plate was prepared by 3-fold and 9-point serial dilutions. […] The reaction is initiated by The addition of the Mg/ATP mix. After incubation for 40 minutes at RT, the reaction is stopped by the addition of phosphoric acid to a concentration of 0.5%.

SMILES | IC50 [nM]
Nc1nc(F)c(-c2ccc(N3CCOCC3)c(CN3CCCCC3)c2)cc1-c1ccc2c(c1)CCNC2=O [I-559, 6-(2-amino-6-fluoro-5-(4-morpholino-3-(piperidin-1-ylmethyl)phenyl)pyridin-3-yl)-3,4-dihydroisoquinolin-1(2H)-one] | 11 to 100
Nc1nc(F)c(-c2ccc(N3CCOCC3)c(CN3CCCCC3)c2)cc1-c1cc2c(cc1F)C(=O)NCC2 [I-560, 6-(2-amino-6-fluoro-5-(4-morpholino-3-(piperidin-1-ylmethyl)phenyl)pyridin-3-yl)-7-fluoro-3,4-dihydroisoquinolin-1(2H)-one] | 11 to 100
CN(C)Cc1cc(-c2cc(-c3cc4c(F)c[nH]c(=O)c4cc3F)c(N)nc2F)ccc1N1CCOCC1 [I-561, 6-(2-amino-5-(3-((dimethylamino)methyl)-4-morpholinophenyl)-6-fluoropyridin-3-yl)-4,7-difluoroisoquinolin-1(2H)-one] | 0.1 to 10
CN(C)Cc1cc(-c2cc(-c3cc4c(F)c[nH]c(=O)c4cc3F)c(N)nc2F)ccc1C1CCOCC1 [I-562, 6-(2-amino-5-(3-((dimethylamino)methyl)-4-(tetrahydro-2H-pyran-4-yl)phenyl)-6-fluoropyridin-3-yl)-4,7-difluoroisoquinolin-1(2H)-one] | 0.1 to 10
CO[C@@H]1CCN(Cc2cc(-c3cc(-c4ccc5c(c4)CCNC5=O)c(N)nc3F)ccc2N2CCOCC2)C1 [I-563, (R)-6-(2-amino-6-fluoro-5-(3-((3-methoxypyrrolidin-1-yl)methyl)-4-morpholinophenyl)pyridin-3-yl)-3,4-dihydroisoquinolin-1(2H)-one] | 11 to 100
CO[C@@H]1CCN(Cc2cc(-c3cc(-c4cc5c(cc4F)C(=O)NCC5)c(N)nc3F)ccc2N2CCOCC2)C1 [I-564, (R)-6-(2-amino-6-fluoro-5-(3-((3-methoxypyrrolidin-1-yl)methyl)-4-morpholinophenyl)pyridin-3-yl)-7-fluoro-3,4-dihydroisoquinolin-1(2H)-one] | 11 to 100
CO[C@H]1CCN(Cc2cc(-c3cc(-c4ccc5c(c4)CCNC5=O)c(N)nc3F)ccc2N2CCOCC2)C1 [I-565, (S)-6-(2-amino-6-fluoro-5-(3-((3-methoxypyrrolidin-1-yl)methyl)-4-morpholinophenyl)pyridin-3-yl)-3,4-dihydroisoquinolin-1(2H)-one] | 0.1 to 10
CO[C@H]1CCN(Cc2cc(-c3cc(-c4cc5c(cc4F)C(=O)NCC5)c(N)nc3F)ccc2N2CCOCC2)C1 [I-566, (S)-6-(2-amino-6-fluoro-5-(3-((3-methoxypyrrolidin-1-yl)methyl)-4-morpholinophenyl)pyridin-3-yl)-7-fluoro-3,4-dihydroisoquinolin-1(2H)-one] | 0.1 to 10
Cc1cc2cc(-c3cc(-c4ccc(N5CCN(CCCC(F)F)CC5)cc4)c(F)nc3N)cc(F)c2c(=O)[nH]1 [I-567, 6-(2-amino-5-(4-(4-(4,4-difluorobutyl)piperazin-1-yl)phenyl)-6-fluoropyridin-3-yl)-8-fluoro-3-methylisoquinolin-1(2H)-one] | 0.1 to 10
CC(=O)N1CCC(Oc2ccc(-c3cc(-c4ccc5c(c4)CCNC5=O)c(N)nc3F)cc2CN(C)C)CC1 [I-568, 6-(5-(4-((1-acetylpiperidin-4-yl)oxy)-3-((dimethylamino)methyl)phenyl)-2-amino-6-fluoropyridin-3-yl)-3,4-dihydroisoquinolin-1(2H)-one] | 0.1 to 10
CC(=O)N1CCC(Oc2ccc(-c3cc(-c4cc5c(cc4F)C(=O)NCC5)c(N)nc3F)cc2CN(C)C)CC1 [I-569, 6-(5-(4-((1-acetylpiperidin-4-yl)oxy)-3-((dimethylamino)methyl)phenyl)-2-amino-6-fluoropyridin-3-yl)-7-fluoro-3,4-dihydroisoquinolin-1(2H)-one] | 11 to 100
CC(C)N1CCN(c2ccc(-c3cc(-c4cc5c(Cl)c[nH]c(=O)c5cn4)c(N)nc3F)cc2)CC1 [I-570, 6-(2-amino-6-fluoro-5-(4-(4-isopropylpiperazin-1-yl)phenyl)pyridin-3-yl)-4-chloro-2,7-naphthyridin-1(2H)-one] | 0.1 to 10
Cc1c[nH]c(=O)c2c(F)cc(-c3cc(-c4ccc(N5CCN(C(C)C)CC5)cc4)c(F)nc3N)cc12 [I-571, 6-(2-amino-6-fluoro-5-(4-(4-isopropylpiperazin-1-yl)phenyl)pyridin-3-yl)-8-fluoro-4-methylisoquinolin-1(2H)-one] | 0.1 to 10
Cc1[nH]c(=O)c2cc(F)c(-c3cc(-c4ccc(N5CCN(C(C)C)CC5)cc4)c(F)nc3N)cc2c1F [I-572, 6-(2-amino-6-fluoro-5-(4-(4-isopropylpiperazin-1-yl)phenyl)pyridin-3-yl)-4,7-difluoro-3-methylisoquinolin-1(2H)-one] | 0.1 to 10
COCCN(C)Cc1cc(-c2cc(-c3ccc4c(c3)CCNC4=O)c(N)nc2F)ccc1C1CCOCC1 [I-573, 6-(2-amino-6-fluoro-5-(3-(((2-methoxyethyl)(methyl)amino)methyl)-4-(tetrahydro-2H-pyran-4-yl)phenyl)pyridin-3-yl)-3,4-dihydroisoquinolin-1(2H)-one] | 0.1 to 10
COCCN(C)Cc1cc(-c2cc(-c3cc4c(cc3F)C(=O)NCC4)c(N)nc2F)ccc1C1CCOCC1 [I-574, 6-(2-amino-6-fluoro-5-(3-(((2-methoxyethyl)(methyl)amino)methyl)-4-(tetrahydro-2H-pyran-4-yl)phenyl)pyridin-3-yl)-7-fluoro-3,4-dihydroisoquinolin-1(2H)-one] | 0.1 to 10
C[C@@H]1CN(c2ccc(-c3cc(-c4ccc5c(c4)CCNC5=O)c(N)nc3F)cc2CN(C)C)CCO1 [I-575, (R)-6-(2-amino-5-(3-((dimethylamino)methyl)-4-(2-methylmorpholino)phenyl)-6-fluoropyridin-3-yl)-3,4-dihydroisoquinolin-1(2H)-one] | 11 to 100
C[C@@H]1CN(c2ccc(-c3cc(-c4cc5c(cc4F)C(=O)NCC5)c(N)nc3F)cc2CN(C)C)CCO1 [I-576, (R)-6-(2-amino-5-(3-((dimethylamino)methyl)-4-(2-methylmorpholino)phenyl)-6-fluoropyridin-3-yl)-7-fluoro-3,4-dihydroisoquinolin-1(2H)-one] | 0.1 to 10
Cc1c[nH]c(=O)c2cc(F)c(-c3cc(-c4ccc(N5CCN(C(C)C)CC5)cc4)c(F)nc3N)cc12 [I-577, 6-(2-amino-6-fluoro-5-(4-(4-isopropylpiperazin-1-yl)phenyl)pyridin-3-yl)-7-fluoro-4-methylisoquinolin-1(2H)-one] | 0.1 to 10
Nc1nc(F)c(-c2ccc(N3CCOCC3)c(CN3CCC3)n2)cc1-c1ccc2c(c1)CCNC2=O [I-578, 6-(6′-amino-6-(azetidin-1-ylmethyl)-2-fluoro-5-morpholino-[2,3′-bipyridin]-5′-yl)-3,4-dihydroisoquinolin-1(2H)-one] | 0.1 to 10
Nc1nc(F)c(-c2ccc(N3CCOCC3)c(CN3CCC3)n2)cc1-c1cc2c(cc1F)C(=O)NCC2 [I-579] | 0.1 to 10
CCN(C)Cc1nc(-c2cc(-c3cc4c(cc3F)C(=O)NCC4)c(N)nc2F)ccc1N1CCOCC1 [I-581, 6-(6′-amino-6-((ethyl(methyl)amino)methyl)-2′-fluoro-5-morpholino-[2,3′-bipyridin]-5′-yl)-7-fluoro-3,4-dihydroisoquinolin-1(2H)-one] | 0.1 to 10
COCCN(C)Cc1nc(-c2cc(-c3ccc4c(c3)CCNC4=O)c(N)nc2F)ccc1N1CCOCC1 [I-582, 6-(6′-amino-2′-fluoro-6-(((2-methoxyethyl)(methyl)amino)methyl)-5-morpholino-[2,3′-bipyridin]-5′-yl)-3,4-dihydroisoquinolin-1(2H)-one] | 0.1 to 10
COCCN(C)Cc1nc(-c2cc(-c3cc4c(cc3F)C(=O)NCC4)c(N)nc2F)ccc1N1CCOCC1 [I-583, 6-(6′-amino-2′-fluoro-6-(((2-methoxyethyl)(methyl)amino)methyl)-5-morpholino-[2,3′-bipyridin]-5′-yl)-7-fluoro-3,4-dihydroisoquinolin-1(2H)-one] | 0.1 to 10
CO[C@H]1CCN(Cc2nc(-c3cc(-c4ccc5c(c4)CCNC5=O)c(N)nc3F)ccc2N2CCOCC2)C1 [I-584, (S)-6-(6′-amino-2-fluoro-6-((3-methoxypyrrolidin-1-yl)methyl)-5-morpholino-[2,3′-bipyridin]-5′-yl)-3,4-dihydroisoquinolin-1(2H)-one] | 0.1 to 10
CO[C@H]1CCN(Cc2nc(-c3cc(-c4cc5c(cc4F)C(=O)NCC5)c(N)nc3F)ccc2N2CCOCC2)C1 [I-585, (S)-6-(6′-amino-2-fluoro-6-((3-methoxypyrrolidin-1-yl)methyl)-5-morpholino-[2,3′-bipyridin]-5′-yl)-7-fluoro-3,4-dihydroisoquinolin-1(2H)-one] | 0.1 to 10
Cc1c[nH]c(=O)c2ccc(-c3cc(-c4ccc(C5CCOCC5)cc4)c(F)nc3N)cc12 [I-586, 6-(2-amino-6-fluoro-5-(4-(tetrahydro-2H-pyran-4-yl)phenyl)pyridin-3-yl)-4-methylisoquinolin-1(2H)-one] | 11 to 100
Cc1cc2cc(-c3cc(-c4ccc(N5CCN(C(C)C)CC5)cc4)c(F)nc3N)c(F)cc2c(=O)[nH]1 [I-587, 6-(2-amino-6-fluoro-5-(4-(4-isopropylpiperazin-1-yl)phenyl)pyridin-3-yl)-7-fluoro-3-methylisoquinolin-1(2H)-one] | 11 to 100
Cc1c[nH]c(=O)c2ccc(-c3cc(-c4ccc(N5CCOCC5)c(CN(C)C)n4)c(F)nc3N)cc12 [I-588, 6-(6′-amino-6-((dimethylamino)methyl)-2′-fluoro-5-morpholino-[2,3′-bipyridin]-5′-yl)-4-methylisoquinolin-1(2H)-one] | 0.1 to 10

From patent US20240343704A1, “HALO-SUBSTITUTED AMINO PYRIDINE COMPOUNDS AS INHIBITORS OF THE HAEMATOPOIETIC PROGENITOR KINASE 1 (HPK1)” (priority 2021, published 2024)
